{"source": "PubChem BioAssay AID2842", "about": "(Southern Research Institute, 2010)"}
{"system": "M. tuberculosis H37Rv growth inhibition", "assay": "Mycobacterium tuberculosis H37Rv growth inhibition, putative kinase inhibitor library, confirmatory dose response (AID 2842);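 further: bacteria incubated one week before Alamar blue readout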", "units": {"IC90": "µg/mL"}}
{"smiles": "O=C(Nc1nnc(-c2ccccc2)o1)c1cc(-c2cccs2)nc2ccccc12", "IC90": 0.72}
{"smiles": "Cc1ccc(-c2[nH]c3ccccc3c2SCCNC(=O)c2cc3ccccc3oc2=O)cc1", "IC90": 4}
{"smiles": "Cc1ccccc1C(=O)N1N=C(c2c(-c3ccccc3)c3cc(Br)ccc3[nH]c2=O)CC1c1ccccc1", "note": "(configuration not stated)", "IC90": 1.68}
{"smiles": "CC(=O)Nc1nnc(-c2ccc(C)cc2C)o1", "IC90": 23.9}
{"smiles": "CSc1ccc2nc(Nc3nc4ccc(NC(C)=O)cc4s3)sc2c1", "IC90": "< 0.2"}
{"smiles": "CC1CCN(S(=O)(=O)c2ccc(C(=O)Nc3nnc(-c4cc(Cl)ccc4Cl)o3)cc2)CC1", "IC90": 35.4}
{"smiles": "COc1cccc(NC(=O)C2C(=O)CN(c3ccccc3)C2=O)c1", "note": "(configuration not stated)", "IC90": 4.41}
{"smiles": "Cc1ccc(C)c(-c2nnc(NC(=O)c3c(F)cccc3F)o2)c1", "IC90": 5.74}
{"smiles": "CC(=O)Nc1ccc2nc(Nc3nc4ccc(Cl)cc4s3)sc2c1", "IC90": 8.93}
{"smiles": "Cc1ccc(C2=NC(C)(C)N=C2SCC(=O)Nc2ccc(C)c(C)c2)cc1", "IC90": 23.5}
{"smiles": "CC(=O)OCn1nnc2ccccc2c1=O", "IC90": 3.33}
{"smiles": "COc1cccc2sc(Nc3nnc(-c4ccc(F)cc4)o3)nc12", "IC90": 2.97}
{"smiles": "O=C(Nc1nnc(C2=COCCO2)o1)c1ccc(Oc2ccccc2)cc1", "IC90": 16.8}
{"smiles": "NC(=O)c1c(NC(=O)c2ccc([N+](=O)[O-])o2)sc2c1CCCCC2", "IC90": 0.52}
{"smiles": "COc1ccc(C)c2sc(N(CCCn3ccnc3)C(=O)c3cccs3)nc12", "IC90": 2.4}
{"smiles": "Cc1ccc(C(=O)Nc2nnc(-c3cc(C)ccc3C)o2)cc1", "IC90": 41.5}
{"smiles": "CC(C)(C)C1CCc2c(sc3nnn(CC(=O)NCc4ccco4)c(=O)c23)C1", "note": "(configuration not stated)", "IC90": 22.3}
{"smiles": "COc1cccc(C(=O)N(CCCn2ccnc2)c2nc3c(C)cccc3s2)c1OC", "IC90": 4.2}
{"smiles": "COc1cc2c3nnc(-c4ccc(F)cc4)c-3cn(Cc3ccccc3)c2cc1OC", "IC90": 12}
{"smiles": "CSc1cccc(-c2nnc(NC(=O)c3cc([N+](=O)[O-])ccc3Cl)o2)c1", "IC90": 0.88}
{"smiles": "COc1cccc(Nc2nc3ccc(OC)cc3s2)c1", "IC90": 23.3}
{"smiles": "Cc1ccc(NC(=O)c2oc3ccccc3c2NC(=O)CCl)cc1C", "IC90": 10.2}
{"smiles": "O=C(OCn1nnc2ccccc2c1=O)C(c1ccccc1)c1ccccc1", "IC90": 8.87}
{"smiles": "CCOc1ccc(-c2[nH]ncc2-c2ccc(Cl)cc2)c(O)c1", "IC90": 7.06}
{"smiles": "O=C(Cc1cccc2ccccc12)Nc1nnc(-c2ccco2)o1", "IC90": 6.89}
{"smiles": "Cc1ccc(C)c(-c2nnc(NC(=O)C3=COCCO3)o2)c1", "IC90": "< 0.2"}
{"smiles": "O=C(Nc1nc2c(s1)COc1ccccc1-2)c1cccc(NS(=O)(=O)c2ccc(F)cc2)c1", "IC90": 13.4}
{"smiles": "CCCCOc1ccc(C(=O)Nc2nnc(-c3ccncc3)o2)cc1", "IC90": 3.42}
{"smiles": "CCCc1cc(-c2nc(N)ncc2-c2ccc3c(c2)OCO3)c(O)cc1OC", "IC90": 17.6}
{"smiles": "Cc1ccc(S(=O)(=O)CCCC(=O)Nc2nc3c(Cl)c(Cl)ccc3s2)cc1", "IC90": 3.41}
{"smiles": "Cc1ccc(-c2nnc(NC(=O)Cc3ccccc3)o2)c(C)c1", "IC90": 14.8}
{"smiles": "COc1cc2c3nnc(-c4ccc(C)c(C)c4)c-3cn(Cc3ccccc3)c2cc1OC", "IC90": 7.35}
{"smiles": "O=C(Nc1cccc(Br)c1)c1ccc([N+](=O)[O-])s1", "IC90": "< 0.2"}
{"smiles": "COc1cc2ccccc2cc1C(=O)Nc1nccs1", "IC90": 30.2}
{"smiles": "COc1ccc(-c2nnc3c4cc(OC)c(OC)cc4n(Cc4ccccc4)cc2-3)cc1", "IC90": 11}
{"smiles": "c1ccc(CN2CCN(c3nc(Nc4ccccc4)c4nccnc4n3)CC2)cc1", "IC90": 5.37}
{"smiles": "O=C(Cc1ccc(-c2ccccc2)cc1)Nc1nnc2n1CCS2", "IC90": 13.5}
{"smiles": "c1c2c(cc3sc(N4CCCC4)nc13)OCO2", "IC90": "< 0.2"}
{"smiles": "C=CCn1c(=NC(=O)c2ccc([N+](=O)[O-])s2)sc2cc(S(N)(=O)=O)ccc21", "IC90": "< 0.2"}
{"smiles": "O=C(NNc1nc2c(F)cccc2s1)c1cc2ccccc2oc1=O", "IC90": 8.19}
{"smiles": "COC(=O)c1ccc(C(=O)NNc2nc3ccc(Cl)cc3s2)cc1", "IC90": 28.9}
{"smiles": "Cc1ccc2nc(N(CCCn3ccnc3)C(=O)c3ccco3)sc2c1", "IC90": 0.48}
{"smiles": "COC(=O)CSc1ncnc2c1cnn2-c1ccc(F)cc1", "IC90": 4.54}
{"smiles": "Fc1ccc2nc(Nc3nc(-c4ccc(Cl)s4)cs3)sc2c1", "IC90": 7.87}
{"smiles": "COc1cccc2sc(Nc3nc4c(s3)CCCC4)nc12", "IC90": 5.82}
{"smiles": "COc1ccccc1C(=O)Nc1nnc(-c2ccc(Cl)cc2)o1", "IC90": 3.86}
{"smiles": "O=C(Nc1nnc(C2=COCCO2)o1)c1ccc(-c2ccccc2)cc1", "IC90": 8.24}
{"smiles": "Cc1ccc(C)c(-c2nnc(NC(=O)c3ccc(Br)s3)o2)c1", "IC90": 6.75}
{"smiles": "CC(C)C(=O)Nc1nnc(-c2ccc(Br)cc2)o1", "IC90": 1.24}
{"smiles": "CC(C)(C)C(=O)Nc1nnc(-c2ccc(Br)cc2)o1", "IC90": "< 0.2"}
{"smiles": "CCOC(=O)N1CCc2c(sc(NC(=O)c3ccco3)c2-c2nc3ccccc3s2)C1", "IC90": 50.2}
{"smiles": "COc1ccccc1-c1nnc(NC(=O)c2ccc3c(c2)CCCC3)o1", "IC90": 8.04}
{"smiles": "COc1cccc(/C=N/Nc2nncc(=O)[nH]2)c1O", "IC90": 0.43}
{"smiles": "COc1cc(OC)cc(C(=O)Nc2nnc(-c3ccc(Br)cc3)o2)c1", "IC90": 52.3}
{"smiles": "CCOc1cccc2sc(N3CCc4ccccc4C3)nc12", "IC90": 15.3}
{"smiles": "O=C1N/C(=N\\N=C\\c2ccccc2O)SC1Cc1ccc(Br)cc1", "note": "(configuration not stated)", "IC90": 1.14}
{"smiles": "CCOc1ccc2nc(N(CCCn3ccnc3)C(=O)c3ccc(F)cc3)sc2c1", "IC90": 7.77}
